Test results from patent US20240384353A1, “METHODS OF TREATING PANCREATIC CANCER” (Fred Hutchinson Cancer Center, priority 2023, published 2024).

Tested on: human PDA tumors
Assay: Median survival by HMGA2/GATA6 status (IHC, tissue microarray of human PDA tumors) and first-line therapy
Format: in vivo
Details: first-line therapy, FIG. 12A-12B
Experimental: Expression levels of HMGA2 and GATA6 were determined separately in Tissue microarray comprising human PDA tumors from over 800 patients, along with matched (normal pancreatic tissue) controls and correlated to clinical data (stage at diagnosis, treatment history). These samples were stained and scored for HMGA2 (FIG. 9A) and GATA6.

With Nc1ccn([C@@H]2O[C@H](CO)[C@@H](O)C2(F)F)c(=O)n1 [Gemcitabine] the “overall median survival of HMGA2^high/GATA6^low tumors compared to HMGA2^low/GATA6^high tumors” value was “overall low median survival”.
